# Test results as given in patent publication US4232008A, “Tetrapeptides and methods” (Ortho Pharmaceutical Corporation, priority 1978, dated 1980).
# Square brackets hold non-standard residues; d marks the D form. Ends that are not written are not given here. Peptide text beside a SMILES is read from it. Glx = not defined here; Sar = CNCC(=O)O
# Tests used:
# [1] = tested on: Th-1+ T-lymphocytes and Bu-1+ B-lymphocytes (differentiation of inducible bone marrow cells); assay: chicken induction assay; assay type: cell-based; details: for biological activity: induction of differentiation of Th-1+ T and Bu-1+ B lymphocytes, compared with ubiquitin: chicken bone marrow cells, cytotoxicity index readout; for concentration at which activity was observed: chicken induction assay
# Description: To determine the activity and characteristics of the tetrapeptide produced in Example I, the following chicken induction assay was employed. This assay is described in greater detail in Brand, et. al., Science, 193 319-321 (July 23, 1976) and references contained therein.
# Bone marrow from newly-hatched chickens was selected as a source of inducible cells because it lacks an appreciable number of Bu-1^+ or Th-1^+ cells. Pooled cells from femur and tibiotarsus of five newly-hatched chicks of strains SC (Hy-Line) were fractionated by ultracentrifugation on a five-layer discontinuous bovine serum albumin (BSA) gradient. Cells from the two lighter layers were combined, washed, and suspended for incubation at a concentration of 5×10^6 cells per milliliter with the appropriate concentration of test polypeptide in RPMI 1630 medium supplemented with 15 mM hepes, 5 percent γ-globulin-free fetal calf serum, deoxyribonuclease (14 to 18 unit/ml), heparin (5 unit/ml), penicillin (100 unit/ml), and streptomycin (100 μg/ml). Controls were incubated with BSA (1 μg/ml) or medium alone. After incubation, the cells were tested in the cytotoxicity assay using chicken Cl and guinea pig C2 to C9 complement fractions as described in the reference article. The proportion of Bu-1^+ or Th-1^+ cells in each layer was calculated as a cytotoxicity index, 100 (a-b)/a, where a and b are the percentages of viable cells in the complement control and test preparation, respectively. The percentage of cells induced was obtained by subtracting the mean values in the control incubations without inducing agents (usually 1 to 3 percent) from those of the test inductions.
# This high dose of ubiquitin inactivates the ubiquitin receptors and thus prevents the induction of cells by any agent which acts through these receptors.
# [2] = tested on: T cells; details: E rosette assay, Bach articles; cited from earlier work
# [3] = tested on: T cells and B cells; details: applicant's published investigation; cited from earlier work
# [4] = tested on: cytotoxic lymphocyte precursors (CLP); assay: microculture limiting dilution assay of cytotoxic lymphocyte precursor frequencies after injection of the drug; assay type: in vivo, mice (C57 BL/6J); details: in vitro assay of spleen cells after administration
# Description: To further illustrate the utility of the subject polypeptides, this example describes a microculture assay for estimating the frequencies of the cytotoxic lymphocytes produced upon stimulation by allogenic antigens. The frequencies of cytotoxic precursors between control animals and animals injected with various concentrations of the drug were compared by a limiting dilution assay.
# The test animals (C57 BL/6J) were injected (i.v. or i.p.) with various concentrations of H--SAR--LYS--SAR--GLN--NH2 (the drug; identification no. G040) in 0.2 ml volume 24 hours before they were sacrificed for the experiments.
# Cell suspensions from spleens of C57 BL/6J mice or DBA/2J mice were prepared by mincing the organ and pressing them through a wire mesh (60 gauge) with the plunger of a 5 c.c. syringe into a falcon petri dish (falcon 3002, 15×60 mm). The cell suspensions were allowed to stand at room temperature for 10 minutes to let the big chunks of tissue settle. The cell suspensions were then transferred to 15 ml Corning centrifuge tubes (Corning 25310) and spun for 10 minutes at 1500 RPM in the Beckmen TJ-6 centrifuge. […] After the third wash, the responder (C57 BL/6J) cells were resuspended in culture medium and counted in the Coulter counter. […] The DBA cells were then resuspended in the culture medium and counted in the Coulter counter. […]
Compound,"biological activity: induction of differentiation of Th-1+ T and Bu-1+ B lymphocytes, compared with ubiquitin [1]",further results
CNCC(=O)N[C@@H](CCCCN)C(=O)N[C@H](C)C(=O)N[C@@H](CCC(N)=O)C(N)=O [H--SAR--LYS--D--ALA--GLN--NH2] (H-[Sar]K[dA]Q-NH2),biological activity similar to that of ubiquitin,–
"GLX--ALA--LYS--SER--GLN--GLY--GLY--SER--ASN (Glx-AKSQGGSN; reading uncertain; also: N-terminal Glx: Gln or pyroglutamic acid, printed as GLX--ALA--LYS--SER--GLN--GLY--GLY--SER--ASN) [FTS, nonapeptide isolated from porcine serum by Bach; GLX is glutamine or pyroglutamic acid]",–,differentiation of T cells versus B cells [2]: selectively differentiated T cells (and not B cells); differentiation of T cells and B cells [3]: differentiated both T cells and B cells
C[C@@H](N)C(=O)N[C@@H](CCCCN)C(=O)N[C@H](C)C(=O)N[C@@H](CCC(N)=O)C(N)=O [H--D--ALA--LYS--D--ALA--GLN--NH2] (H-[dA]K[dA]Q-NH2),biological activity similar to that of ubiquitin,–
CNCC(=O)N[C@@H](CCCCN)C(=O)N(C)CC(=O)N[C@@H](CCC(N)=O)C(N)=O [H--SAR--LYS--SAR--GLN--NH2] (H-[Sar]K[Sar]Q-NH2),biological activity similar to that of ubiquitin,effect on in vivo production of cytotoxic lymphocyte precursors upon stimulation by allogenic antigens [4]: promoted the production of cytotoxic lymphocyte precursors; concentration at which activity was observed [1]: ≥ 0.1 pg/mL
"C[C@H](N)C(=O)N[C@@H](CCCCN)C(=O)N[C@@H](CO)C(=O)N[C@@H](CCC(N)=O)C(=O)O [Example I, H--ALA--LYS--SER--GLN--OH] (H-AKSQ-OH)",biological activity similar to that of ubiquitin,concentration at which activity was observed [1]: ng/ml concentrations
QAKSQ [H--GLN--ALA--LYS--SER--GLN--OH],biological activity similar to that of ubiquitin,–
"QAKSQGGSN [H--GLN--ALA--LYS--SER--GLN--GLY--GLY--SER--ASN--OH, reference compound]",biological activity similar to that of ubiquitin,–
CNCC(=O)N[C@@H](C)C(=O)N[C@@H](CCCCN)C(=O)N[C@@H](CO)C(=O)N[C@@H](CCC(N)=O)C(=O)O [H--SAR--ALA--LYS--SER--GLN--OH] (H-[Sar]AKSQ-OH),biological activity similar to that of ubiquitin,–
